From the kinase profiling compilation of Christmann-Franck et al. (2016)

What was measured:
Assay in all cases: radiometric filter-binding kinase assay, Kinase HotSpot
Settings in all cases: compound 0.5 µM; ATP 10 µM
ACVR1B (human) = ACVR1B (human) (UniProt P36896)
AKT3 (human) = AKT3 (human) (UniProt Q9Y243)
AURKC (human) = AURKC (human) (UniProt Q9UQB9)
AXL (human) = AXL (human) (UniProt P30530)
BTK (human) = BTK (human) (UniProt Q06187)
CAMK1D (human) = CAMK1D (human) (UniProt Q8IU85)
CAMK2A (human) = CAMK2A (human) (UniProt Q9UQM7)
CAMK2D (human) = CAMK2D (human) (UniProt Q13557)
Chain of CAMK2D (human) (Q13557 whole entry, looked up): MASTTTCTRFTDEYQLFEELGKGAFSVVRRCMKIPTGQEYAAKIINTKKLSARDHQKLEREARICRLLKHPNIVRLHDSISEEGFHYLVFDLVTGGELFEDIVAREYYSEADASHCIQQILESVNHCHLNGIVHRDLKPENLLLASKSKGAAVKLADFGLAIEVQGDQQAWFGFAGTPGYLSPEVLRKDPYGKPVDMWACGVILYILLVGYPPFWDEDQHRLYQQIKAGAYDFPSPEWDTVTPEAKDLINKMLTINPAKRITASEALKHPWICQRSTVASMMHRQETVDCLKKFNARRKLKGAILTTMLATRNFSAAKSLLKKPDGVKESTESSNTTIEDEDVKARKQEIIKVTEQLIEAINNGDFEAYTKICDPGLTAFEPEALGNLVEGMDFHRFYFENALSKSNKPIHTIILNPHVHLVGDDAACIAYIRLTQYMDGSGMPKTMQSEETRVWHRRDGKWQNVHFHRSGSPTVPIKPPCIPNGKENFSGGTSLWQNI

CDK3 CCNE1 (human) = CDK3 CCNE1 (human) (UniProt Q00526+P24864)
CDK7 CCNH MNAT1 (human) = CDK7 CCNH MNAT1 (human) (UniProt P50613+P51948+P51946)
Chain of CDK7 CCNH MNAT1 (human) (P50613 whole entry, looked up): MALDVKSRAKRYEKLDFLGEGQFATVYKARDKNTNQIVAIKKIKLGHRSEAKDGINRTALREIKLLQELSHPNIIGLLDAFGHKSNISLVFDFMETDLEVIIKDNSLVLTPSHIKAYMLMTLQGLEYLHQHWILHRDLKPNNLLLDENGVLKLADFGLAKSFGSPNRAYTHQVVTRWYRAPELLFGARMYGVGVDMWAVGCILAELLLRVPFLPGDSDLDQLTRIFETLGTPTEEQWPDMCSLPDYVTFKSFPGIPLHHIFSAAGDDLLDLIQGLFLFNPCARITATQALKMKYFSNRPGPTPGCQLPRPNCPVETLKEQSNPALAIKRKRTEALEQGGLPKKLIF
Chain of CDK7 CCNH MNAT1 (human) (P51946 whole entry, looked up): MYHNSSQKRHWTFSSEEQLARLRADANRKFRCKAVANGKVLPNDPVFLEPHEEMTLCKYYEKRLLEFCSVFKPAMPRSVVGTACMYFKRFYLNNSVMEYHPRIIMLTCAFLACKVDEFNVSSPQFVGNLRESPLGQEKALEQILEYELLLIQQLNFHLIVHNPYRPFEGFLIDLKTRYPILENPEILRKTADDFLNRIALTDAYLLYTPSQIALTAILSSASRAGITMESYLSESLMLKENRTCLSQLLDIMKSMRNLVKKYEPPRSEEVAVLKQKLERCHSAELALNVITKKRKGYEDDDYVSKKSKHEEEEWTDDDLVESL
Chain of CDK7 CCNH MNAT1 (human) (P51948 whole entry, looked up): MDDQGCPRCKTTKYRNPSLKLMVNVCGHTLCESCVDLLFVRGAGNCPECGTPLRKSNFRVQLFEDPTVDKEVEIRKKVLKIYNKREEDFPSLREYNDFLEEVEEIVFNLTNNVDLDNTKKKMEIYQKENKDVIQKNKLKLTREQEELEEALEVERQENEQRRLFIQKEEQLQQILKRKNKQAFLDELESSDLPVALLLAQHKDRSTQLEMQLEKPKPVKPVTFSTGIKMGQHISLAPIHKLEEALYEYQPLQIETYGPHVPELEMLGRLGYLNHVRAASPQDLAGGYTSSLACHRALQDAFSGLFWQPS

CSNK1D (human) = CSNK1D (human) (UniProt P48730)
DAPK1 (human) = DAPK1 (human) (UniProt P53355)
DAPK2 (human) = DAPK2 (human) (UniProt Q9UIK4)
DYRK3 (human) = DYRK3 (human) (UniProt O43781)
EPHA4 (human) = EPHA4 (human) (UniProt P54764)
FES (human) = FES (human) (UniProt P07332)
INSRR (human) = INSRR (human) (UniProt P14616)
LIMK1 (human) = LIMK1 (human) (UniProt P53667)
MAP3K2 (human) = MAP3K2 (human) (UniProt Q9Y2U5)
MAP3K5 (human) = MAP3K5 (human) (UniProt Q99683)
MAP3K7 TAB1 (human) = MAP3K7 TAB1 (human) (UniProt O43318+Q15750)
Chain of MAP3K7 TAB1 (human) (O43318 whole entry, looked up): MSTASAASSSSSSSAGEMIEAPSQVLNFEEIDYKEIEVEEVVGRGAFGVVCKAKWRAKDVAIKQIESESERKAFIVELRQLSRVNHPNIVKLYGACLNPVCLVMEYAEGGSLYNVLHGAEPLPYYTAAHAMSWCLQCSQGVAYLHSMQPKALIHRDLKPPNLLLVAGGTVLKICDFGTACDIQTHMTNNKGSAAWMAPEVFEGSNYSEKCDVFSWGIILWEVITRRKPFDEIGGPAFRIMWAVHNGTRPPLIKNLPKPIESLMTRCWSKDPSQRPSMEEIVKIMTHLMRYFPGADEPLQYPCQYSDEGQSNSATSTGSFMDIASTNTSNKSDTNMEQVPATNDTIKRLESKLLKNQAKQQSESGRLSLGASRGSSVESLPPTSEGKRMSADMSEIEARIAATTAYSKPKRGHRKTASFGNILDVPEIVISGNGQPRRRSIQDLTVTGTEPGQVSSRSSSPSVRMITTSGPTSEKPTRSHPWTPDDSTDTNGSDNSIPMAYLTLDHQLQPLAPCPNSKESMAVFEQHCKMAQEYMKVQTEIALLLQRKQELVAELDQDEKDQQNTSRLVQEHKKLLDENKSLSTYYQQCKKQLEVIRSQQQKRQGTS
Chain of MAP3K7 TAB1 (human) (Q15750 whole entry, looked up): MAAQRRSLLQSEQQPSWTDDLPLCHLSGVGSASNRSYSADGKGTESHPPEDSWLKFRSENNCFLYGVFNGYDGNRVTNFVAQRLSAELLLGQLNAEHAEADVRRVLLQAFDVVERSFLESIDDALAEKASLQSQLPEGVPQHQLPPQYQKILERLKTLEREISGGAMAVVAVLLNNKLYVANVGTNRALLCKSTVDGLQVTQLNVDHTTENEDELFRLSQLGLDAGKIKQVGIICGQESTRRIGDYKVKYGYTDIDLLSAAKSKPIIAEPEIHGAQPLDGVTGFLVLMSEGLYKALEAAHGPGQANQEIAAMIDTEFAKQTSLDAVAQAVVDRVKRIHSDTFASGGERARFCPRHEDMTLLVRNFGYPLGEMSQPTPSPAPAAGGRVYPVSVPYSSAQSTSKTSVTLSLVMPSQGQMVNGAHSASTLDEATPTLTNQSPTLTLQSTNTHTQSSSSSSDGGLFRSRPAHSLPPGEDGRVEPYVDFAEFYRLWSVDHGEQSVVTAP

MAP3K9 (human) = MAP3K9 (human) (UniProt P80192)
MAP4K4 (human) = MAP4K4 (human) (UniProt O95819)
MAPK12 (human) = MAPK12 (human) (UniProt P53778)
NEK3 (human) = NEK3 (human) (UniProt P51956)
PASK (human) = PASK (human) (UniProt Q96RG2)
PDGFRB (human) = PDGFRB (human) (UniProt P09619)
PHKG1 (human) = PHKG1 (human) (UniProt Q16816)
Chain of PHKG1 (human) (Q16816 whole entry, looked up): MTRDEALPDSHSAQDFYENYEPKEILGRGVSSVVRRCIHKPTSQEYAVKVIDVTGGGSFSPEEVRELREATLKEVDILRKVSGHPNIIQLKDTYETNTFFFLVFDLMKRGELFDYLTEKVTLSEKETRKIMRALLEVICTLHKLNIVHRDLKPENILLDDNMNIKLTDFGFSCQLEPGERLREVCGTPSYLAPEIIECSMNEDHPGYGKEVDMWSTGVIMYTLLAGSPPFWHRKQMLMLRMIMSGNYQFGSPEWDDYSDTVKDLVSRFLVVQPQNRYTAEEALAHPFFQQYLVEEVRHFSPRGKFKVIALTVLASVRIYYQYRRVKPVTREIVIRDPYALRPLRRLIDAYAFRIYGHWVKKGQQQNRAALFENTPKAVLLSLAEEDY

PRKCD (human) = PRKCD (human) (UniProt Q05655)
PRKD2 (human) = PRKD2 (human) (UniProt Q9BZL6)
Chain of PRKD2 (human) (Q9BZL6 whole entry, looked up): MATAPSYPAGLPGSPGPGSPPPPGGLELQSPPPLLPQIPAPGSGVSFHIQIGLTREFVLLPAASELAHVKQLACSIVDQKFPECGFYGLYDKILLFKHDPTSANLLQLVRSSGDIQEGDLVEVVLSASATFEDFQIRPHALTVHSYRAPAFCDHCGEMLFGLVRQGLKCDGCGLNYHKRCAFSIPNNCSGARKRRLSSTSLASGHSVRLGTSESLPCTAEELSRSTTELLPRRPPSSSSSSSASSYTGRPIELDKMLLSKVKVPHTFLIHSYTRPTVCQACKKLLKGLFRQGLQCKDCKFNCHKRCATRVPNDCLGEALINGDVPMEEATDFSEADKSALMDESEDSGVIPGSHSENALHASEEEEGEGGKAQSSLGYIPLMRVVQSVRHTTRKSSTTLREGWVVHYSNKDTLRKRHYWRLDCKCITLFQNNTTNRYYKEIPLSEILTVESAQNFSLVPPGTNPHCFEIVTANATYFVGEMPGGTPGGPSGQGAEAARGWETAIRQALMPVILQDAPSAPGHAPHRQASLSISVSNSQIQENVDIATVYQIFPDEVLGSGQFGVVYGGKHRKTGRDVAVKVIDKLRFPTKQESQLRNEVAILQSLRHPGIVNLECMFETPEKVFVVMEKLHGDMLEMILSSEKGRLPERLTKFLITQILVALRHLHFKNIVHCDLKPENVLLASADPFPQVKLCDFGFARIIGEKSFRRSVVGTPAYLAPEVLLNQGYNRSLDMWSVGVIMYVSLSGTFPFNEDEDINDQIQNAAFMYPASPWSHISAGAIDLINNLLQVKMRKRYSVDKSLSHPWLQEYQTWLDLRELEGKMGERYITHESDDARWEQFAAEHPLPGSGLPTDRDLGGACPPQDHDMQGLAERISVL

PRKG2 (human) = PRKG2 (human) (UniProt Q13237)
PTK2 (human) = PTK2 (human) (UniProt Q05397)
RIPK2 (human) = RIPK2 (human) (UniProt O43353)
RPS6KA2 KD1 KD2 (human) = RPS6KA2 KD1 KD2 (human) (UniProt Q15349)
RPS6KB1 (human) = RPS6KB1 (human) (UniProt P23443)
SRPK2 (human) = SRPK2 (human) (UniProt P78362)
STK16 (human) = STK16 (human) (UniProt O75716)
STK24 (human) = STK24 (human) (UniProt Q9Y6E0)
SYK (human) = SYK (human) (UniProt P43405)
TAOK1 (human) = TAOK1 (human) (UniProt Q7L7X3)
Chain of TAOK1 (human) (Q7L7X3 whole entry, looked up): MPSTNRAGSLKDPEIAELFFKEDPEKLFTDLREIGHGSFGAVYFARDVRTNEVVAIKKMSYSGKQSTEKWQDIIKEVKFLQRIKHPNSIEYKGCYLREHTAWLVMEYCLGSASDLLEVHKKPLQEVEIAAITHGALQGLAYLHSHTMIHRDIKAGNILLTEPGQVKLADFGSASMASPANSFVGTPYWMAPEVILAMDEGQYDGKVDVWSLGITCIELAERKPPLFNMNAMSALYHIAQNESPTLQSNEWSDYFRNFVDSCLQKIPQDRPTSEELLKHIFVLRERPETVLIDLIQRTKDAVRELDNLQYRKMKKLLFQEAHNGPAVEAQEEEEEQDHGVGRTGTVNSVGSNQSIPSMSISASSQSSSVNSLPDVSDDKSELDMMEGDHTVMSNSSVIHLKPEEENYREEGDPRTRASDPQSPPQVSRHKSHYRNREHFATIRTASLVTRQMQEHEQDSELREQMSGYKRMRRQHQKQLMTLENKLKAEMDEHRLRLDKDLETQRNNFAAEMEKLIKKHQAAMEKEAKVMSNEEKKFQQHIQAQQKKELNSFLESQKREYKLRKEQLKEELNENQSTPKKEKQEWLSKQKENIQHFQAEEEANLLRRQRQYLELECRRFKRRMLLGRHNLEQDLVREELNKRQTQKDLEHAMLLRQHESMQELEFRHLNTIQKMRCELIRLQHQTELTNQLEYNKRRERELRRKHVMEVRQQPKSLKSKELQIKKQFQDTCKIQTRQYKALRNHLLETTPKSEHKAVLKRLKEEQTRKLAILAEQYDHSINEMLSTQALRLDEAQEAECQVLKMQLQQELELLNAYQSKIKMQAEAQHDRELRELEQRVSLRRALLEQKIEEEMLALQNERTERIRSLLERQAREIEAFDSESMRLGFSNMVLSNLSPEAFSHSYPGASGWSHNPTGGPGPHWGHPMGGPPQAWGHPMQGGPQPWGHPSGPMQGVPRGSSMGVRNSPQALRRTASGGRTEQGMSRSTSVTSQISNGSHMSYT

TGFBR2 (human) = TGFBR2 (human) (UniProt P37173)
VRK1 (human) = VRK1 (human) (UniProt Q99986)

## Cn1cnc2cc3c(Nc4cccc(Br)c4)ncnc3cc21
ACVR1B (human)
  residual activity: 111%
AKT3 (human)
  residual activity: 89.5%
AURKC (human)
  residual activity: 96.5%
AXL (human)
  residual activity: 101%
BTK (human)
  residual activity: 86.8%
CAMK1D (human)
  residual activity: 104%
CAMK2A (human)
  residual activity: 102%
CAMK2D (human)
  residual activity: 92.2%
CDK3 CCNE1 (human)
  residual activity: 92.5%
CDK7 CCNH MNAT1 (human)
  residual activity: 99.5%
CSNK1D (human)
  residual activity: 93.9%
DAPK1 (human)
  residual activity: 87.2%
DAPK2 (human)
  residual activity: 92.5%
DYRK3 (human)
  residual activity: 102%
EPHA4 (human)
  residual activity: 80.7%
FES (human)
  residual activity: 101%
INSRR (human)
  residual activity: 92.1%
LIMK1 (human)
  residual activity: 99%
MAP3K2 (human)
  residual activity: 97.6%
MAP3K5 (human)
  residual activity: 110%
MAP3K7 TAB1 (human)
  residual activity: 98.6%
MAP3K9 (human)
  residual activity: 79.8%
MAP4K4 (human)
  residual activity: 52.1%
MAPK12 (human)
  residual activity: 92%
NEK3 (human)
  residual activity: 88.2%
PASK (human)
  residual activity: 89.8%
PDGFRB (human)
  residual activity: 99.7%
PHKG1 (human)
  residual activity: 85%
PRKCD (human)
  residual activity: 91.8%
PRKD2 (human)
  residual activity: 82.6%
PRKG2 (human)
  residual activity: 63.6%
PTK2 (human)
  residual activity: 108%
RIPK2 (human)
  residual activity: 35.6%
RPS6KA2 KD1 KD2 (human)
  residual activity: 79.4%
RPS6KB1 (human)
  residual activity: 100%
SRPK2 (human)
  residual activity: 97.1%
STK16 (human)
  residual activity: 96.3%
STK24 (human)
  residual activity: 83.4%
SYK (human)
  residual activity: 98.5%
TAOK1 (human)
  residual activity: 92.4%
TGFBR2 (human)
  residual activity: 98.9%
VRK1 (human)
  residual activity: 100%
